Results as given in article PMC2728345 (Toxicology and applied pharmacology, 2009).
Where a chain is given by its changes, count along the chain named. Entries after “also recorded” stand apart in the source; their conditions may differ. Like-named read-outs stand apart in the source and are kept apart here.

What was measured:
[1] = biological target: T1, human PXR (Homo sapiens, UniProt O75469); experiment: Activation of human PXR in hPXR-HRE cells transfected with HCE1, HCE2 or vector; conditions: 10 µM; for effect of carboxylesterase cotransfection on PXR activation: hPXR-HRE cells transfected with HCE1 or HCE2 vs vector; for decrease in PXR activation, HCE1 versus HCE2 cotransfection: hPXR-HRE cells
T1 sequence (O75469 1-434): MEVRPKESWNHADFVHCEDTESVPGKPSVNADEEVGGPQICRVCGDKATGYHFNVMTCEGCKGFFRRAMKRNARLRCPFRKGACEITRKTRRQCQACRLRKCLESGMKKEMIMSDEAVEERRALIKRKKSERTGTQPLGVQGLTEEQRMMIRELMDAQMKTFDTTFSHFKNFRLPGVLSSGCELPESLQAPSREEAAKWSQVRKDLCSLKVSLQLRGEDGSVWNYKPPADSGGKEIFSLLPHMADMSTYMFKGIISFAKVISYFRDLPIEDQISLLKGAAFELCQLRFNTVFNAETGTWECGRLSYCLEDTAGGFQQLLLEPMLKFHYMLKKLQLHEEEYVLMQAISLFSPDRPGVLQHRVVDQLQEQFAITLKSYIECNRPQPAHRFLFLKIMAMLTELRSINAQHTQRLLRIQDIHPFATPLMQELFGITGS

[2] = 50 µg protein, pyrethroid 200 µM mixed with equal volume, Tris-HCl pH 7.4, 37°C
[3] = biological target: T2, carboxylesterase HCE1 (Homo sapiens, UniProt P23141); experiment: Hydrolysis of pyrethroids by recombinant HCE1; format: in vitro ADME; conditions: recombinant HCE1 vs HCE2 lysates, Tris-HCl pH 7.4
T2 sequence (P23141 18-567): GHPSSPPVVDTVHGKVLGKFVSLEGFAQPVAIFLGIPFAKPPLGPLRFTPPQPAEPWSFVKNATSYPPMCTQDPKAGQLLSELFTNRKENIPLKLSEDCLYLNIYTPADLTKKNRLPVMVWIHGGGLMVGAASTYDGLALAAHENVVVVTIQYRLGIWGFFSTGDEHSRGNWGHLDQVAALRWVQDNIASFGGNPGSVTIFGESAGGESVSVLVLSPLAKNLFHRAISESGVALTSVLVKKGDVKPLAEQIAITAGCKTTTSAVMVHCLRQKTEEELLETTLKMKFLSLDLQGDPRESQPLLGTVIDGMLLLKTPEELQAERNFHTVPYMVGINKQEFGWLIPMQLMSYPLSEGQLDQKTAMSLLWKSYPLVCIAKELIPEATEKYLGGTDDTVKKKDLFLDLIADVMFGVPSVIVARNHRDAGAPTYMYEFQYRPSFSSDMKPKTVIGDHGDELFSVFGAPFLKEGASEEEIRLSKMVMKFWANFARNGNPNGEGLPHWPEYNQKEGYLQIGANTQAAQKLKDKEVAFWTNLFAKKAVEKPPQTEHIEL

[4] = biological target: T3, carboxylesterase HCE2 (Homo sapiens, UniProt O00748); conditions: Tris-HCl buffer pH 8.0; ref Nishi et al. (2006); cited from earlier work
[5] = tested on: rats or mice; conditions: in vivo, po; cited from earlier work
[6] = biological target: T3, carboxylesterase HCE2; experiment: Hydrolysis of pyrethroids by recombinant HCE2; format: in vitro ADME; conditions: recombinant HCE2 vs HCE1 lysates, Tris-HCl pH 7.4
[7] = biological target: T4, human PXR variant S208F (Homo sapiens, UniProt O75469, S208F)
T4 sequence (O75469 1-434 S208F): T1 sequence (O75469 1-434) with S208F

[8] = tested on: HCE2; experiment: HCE2 expression in human primary hepatocytes; format: cell-based; conditions: 10 µM, 24 h
[9] = tested on: CYP3A4; experiment: CYP3A4 expression in human primary hepatocytes; conditions: 10 µM, 24 h
[10] = biological target: T1, human PXR; experiment: Activation of human PXR in stable line hPXR-HRE; conditions: 10 µM, 24 h, ratio over DMSO
[11] = biological target: T5, human PXR variant L412I (Homo sapiens, UniProt O75469, L412I); conditions: HepG2 cotransfection, 10 µM, 24 h
T5 sequence (O75469 1-434 L412I): T1 sequence (O75469 1-434) with L412I

[12] = biological target: T4, human PXR variant S208F; conditions: HepG2 cotransfection, 10 µM, 24 h; words: compared with wild-type PXR

T3 sequence (O00748 27-559): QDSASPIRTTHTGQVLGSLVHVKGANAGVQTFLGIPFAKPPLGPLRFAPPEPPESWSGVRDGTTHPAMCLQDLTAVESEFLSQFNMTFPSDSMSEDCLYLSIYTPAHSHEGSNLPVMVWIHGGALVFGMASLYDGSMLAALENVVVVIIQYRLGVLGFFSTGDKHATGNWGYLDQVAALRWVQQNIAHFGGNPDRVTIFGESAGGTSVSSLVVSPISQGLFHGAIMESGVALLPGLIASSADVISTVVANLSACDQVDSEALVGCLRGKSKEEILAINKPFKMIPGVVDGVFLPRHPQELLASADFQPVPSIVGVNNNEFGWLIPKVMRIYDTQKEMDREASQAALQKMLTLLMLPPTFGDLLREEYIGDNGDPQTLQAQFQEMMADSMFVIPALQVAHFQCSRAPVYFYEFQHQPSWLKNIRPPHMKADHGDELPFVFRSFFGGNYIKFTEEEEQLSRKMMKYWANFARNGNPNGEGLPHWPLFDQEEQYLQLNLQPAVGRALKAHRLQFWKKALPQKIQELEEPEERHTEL

Compound	effect of carboxylesterase cotransfection on PXR activation [1]	decrease in PXR activation, HCE1 versus HCE2 cotransfection [1]	hydrolysis by pooled human liver microsomes (rate group / extent, in words) [2]	preference for hydrolysis by HCE1 over HCE2 (words) [3]	selective hydrolysis HCE2 vs HCE1 (literature) [4]	LD50 [5]	preference for hydrolysis by HCE2 over HCE1 [6]	activation of PXR variant S208F [7]	HCE2 protein (Western blotting) [8]	CYP3A4 protein (Western blotting) [9]	activation of human PXR [10]	activation of PXR variant L412I compared with wild-type PXR [11]	activation of PXR variant S208F [12]
CC1(C)[C@H](C(=O)O[C@H](C#N)c2cccc(Oc3ccccc3)c2)[C@@H]1C=C(Br)Br [Deltamethrin]	markedly decreased	much more decreases	high rate	much more active than HCE2; also recorded: preferably hydrolyzed by HCE1	better substrate of HCE2	535 mg/kg							
CC1(C)C(C=C(Cl)Cl)C1C(=O)OC(C#N)c1ccc(F)c(Oc2ccccc2)c1 (stereo not shown) [Baythroid]			moderate rate				HCE2 preferably hydrolyzed	10.6 fold					
CC1(C)[C@H](C(=O)O[C@H](C#N)c2cccc(Oc3ccccc3)c2)[C@@H]1/C=C(\Cl)C(F)(F)F (racemic) [lambda-Cyhalothrin]	markedly decreased	much more decreases	moderate rate	HCE1 preferably hydrolyzed; also recorded: much more active than HCE2		56 mg/kg			but not HCE1 or HCE2 protein	significant increase	stronger activator of human PXR	less extent than the wild-type PXR	no differences
